In patent publication US20160289663A1, “NOVEL CHIMERIC GENE ATF7IP-PDGFRB OF ACUTE LYMPHOBLASTIC LEUKEMIA” (priority 2013, published 2016):
Where a name gives a salt, the structure may show the parent alone.

Experiments:
[1] = test system: ATF7IP-PDGFRB-expressing Ba/F3 cells; experiment: Cell proliferation (WST) assay, ATF7IP-PDGFRB Ba/F3 transfectants without conditioned medium; conditions: for effect on viable cell number: next-generation TKIs, FIG. 13
Experimental: (A) ATF7IP-PDGFRB-expressing Ba/F3 cells in the absence of WEHI-3-conditioned medium (CM) and Mock Ba/F3 cells in the presence of CM were each treated with or without either the PI3 kinase inhibitor LY294002 or the MEK inhibitor PD98059 at the indicated concentrations for 24 hours. Subsequently, the number of living cells was estimated for each type of the cells by WST assay in the same way as in FIG. 5B. The ratio of the OD value obtained from the inhibitor-treated cells relative to that obtained from the inhibitor-untreated cells was calculated and expressed as the means±SEM of triplicates. (B) ATF7IP-PDGFRB-expressing Ba/F3 cells were treated with PD98059 in the presence or absence of CM, and examined in the same way as in (A). […]
The data were analyzed by F-test. P values less than 0.05 were considered significant. All experiments were performed at least three times to calculate means and SEM values.

[2] = test system: Mock Ba/F3 cells; experiment: Cell proliferation (WST) assay, Mock Ba/F3 cells with WEHI-3-conditioned medium; assay type: cell-based, mouse; conditions: 24 hours, presence of conditioned medium, FIG. 10A
Experimental: The data were analyzed by F-test. P values less than 0.05 were considered significant.

[3] = test system: phosphorylation of MAP kinases/AKT and PDGFRB in ATF7IP-PDGFRB-expressing Ba/F3 cells; experiment: Immunoblot of MAP kinase/AKT/PDGFRB phosphorylation in ATF7IP-PDGFRB Ba/F3 cells; assay type: cell-based, mouse; conditions: immunoblotting, FIG. 11
Experimental: Cell lysates were prepared from the same sample preparations as in FIG. 10. Immunoblot analysis was performed in the same way as in FIG. 8. Abbreviations: None, without inhibitor; LY, with LY294002; and PD, with PD98059.
Immunoblot analysis was performed as in FIG. 8.
Immunoblot analysis was performed as described previously (Kiyokawa, et al., J Biol Chem, 1997, 272, 18656-18665; Tomita, et al., Leukemia Research, 2014, 38, 361-370) using the following antibodies: anti-phosphotyrosine (4G10; Merck Millipore), anti-PDGF receptor β (28E1), anti-phospho-PDGF receptor β Tyr751 (C63G6), anti-phospho-PDGF receptor β Tyr 771 (76D6), anti-phospho-PDGF receptor β Tyr1009 (42F9), anti-phospho-PDGF receptor β Tyr1021 (6F10), anti-phospho-p44/42 MAPK (ERK1/2, Tyr202/Tyr204), anti-phospho-p38 MAPK (Thr180/Tyr182), anti-phospho-JNK (Thr183/Tyr185, 81E11), anti-phospho-AKT (Ser473), anti-phospho-PLCγ1 (Tyr783), anti-Casitas B-lineage lymphoma binding (Cbl), anti-p38 MAPK antibody and anti-JNK antibody (Cell Signaling Technology); anti-ATF7IP (MCAF1) (Abcam, Cambridge, UK); anti-ERK, anti-PLCγ, (BD Biosciences, San Jose, Calif., USA); anti-β-actin (Sigma-Aldrich, St. Louis, Mo.); and horseradish peroxidase (HRP)-conjugated secondary antibody (Dako, Glostrup, Denmark). […]

[4] = test system: recurrent Ph-like acute lymphoblastic leukemia bearing ATF7IP/PDGFRB translocation; experiment: Dasatinib monotherapy case report, MRD monitored by leukemia-specific genomic PCR; assay type: in vivo, human; conditions: one patient, 66 mg/m^2/day
Experimental: (A) The therapeutic response was evaluated by fluorescence in situ hybridization (FISH), RT-PCR (Kobayashi K., et al., Br J Haematol, 2014, 165, 836-841), and genomic PCR.
This example describes a monotherapy with the tyrosine kinase inhibitor (TKI) dasatinib in a patient with recurrent Ph-like acute lymphoblastic leukemia bearing ATF7IP/PDGFRB translocation.

[5] = test system: myeloid malignancies bearing PDGFRB fusion genes; conditions: without secondary resistance; Cheah et al., Blood 2014; cited from earlier work
[6] = Mus musculus, BaF3, 48 h, read-out: viable cell number

Structure (SMILES): COc1cccc(-c2cc(=O)c3ccccc3o2)c1N [PD98059]
- cell death ([1]; 24 hours, absence of conditioned medium, FIG. 10A): induced cell death
- MEK inhibitor-induced cell death with simultaneous conditioned medium containing IL3 ([1]; presence of conditioned medium, FIG. 10B): partially avoided
- cell death [2]: not in the Mock-expressing Ba/F3 cells
- phosphorylation of MAP kinase [3]: markedly reduced

Structure (SMILES): Cc1nc(Nc2ncc(C(=O)Nc3c(C)cccc3Cl)s2)cc(N2CCN(CCO)CC2)n1 [dasatinib]
- viability at 0.0025 µM [1, 6]: < 10%
- duration of complete molecular remission [4]: ≥ 12 months
- time to disappearance of MRD ([4]; leukemia-specific genomic PCR): ≤ 3 months

Structure (SMILES): Cc1ccc(NC(=O)c2ccc(CN3CCN(C)CC3)cc2)cc1Nc1nccc(-c2cccnc2)n1 [imatinib mesylate]
- 10-year overall survival rate [5]: 90%

Structure (SMILES): Cc1ccc(NC(=O)c2ccc(CN3CCN(C)CC3)cc2)cc1Nc1nccc(-c2cccnc2)n1 [imatinib]
- cell proliferation ([1]; IL-3-independent proliferation, exposure to TKI): significantly inhibited in a concentration-dependent manner
- viability at 0.025 µM [1, 6]: < 10%

Structure (SMILES): Cc1cn(-c2cc(NC(=O)c3ccc(C)c(Nc4nccc(-c5cccnc5)n4)c3)cc(C(F)(F)F)c2)cn1 [nilotinib]
- effect on viable cell number [1]: effectively reduced the viable cell number

Structure (SMILES): CNC(=O)c1cc(Oc2ccc(NC(=O)Nc3cc(C(C)(C)C)nn3-c3ccc4ncccc4c3)c(F)c2)ccn1 [rebastinib]
- effect on viable cell number [1]: effectively reduced the viable cell number
